Experimental data published in BindingDB's records for PubMed 22948716 (Children's Hospital of Philadelphia).

What was measured:
[1] = Inhibition of CENP-E in human SK-N-FI cells assessed as decrease in cell viability after 72 hrs by Cell-titer Glo reagent assay
[2] = Inhibition of CENP-E in human RKO cells expressing BRAF mutant assessed as decrease in cell viability after 72 hrs by Cell-titer Glo reagent assay
[3] = Inhibition of CENP-E in human SW620 cells expressing KRAS mutant assessed as decrease in cell viability after 72 hrs by Cell-titer Glo reagent assay
[4] = Inhibition of CENP-E in human HCT-116 cells expressing KRAS mutant assessed as decrease in cell viability after 72 hrs by Cell-titer Glo reagent assay
[5] = Inhibition of CENP-E in human SK-N-FI cells assessed as decrease in cell viability after 72 hrs in presence of ERK1 siRNA by Cell-titer Glo reagent assay

CC(C)Oc1ccc(C(=O)N[C@H](CNC(=O)CN(C)C)Cc2ccc(-c3cn4cccc([C@H](C)O)c4n3)cc2)cc1Cl [Gsk-923295a]
IC50 [1]: 283 nM
IC50 [2]: 56 nM
IC50 [3]: 42 nM
IC50 [4]: 52 nM
IC50 [5]: 134 nM
